Test results taken from patent publication US8227478B2, “JNK modulators” (Roche Palo Alto LLC, priority 2008, dated 2012).
Several values for one entry are separate records, joined by “and”; a condition that tells them apart may be missing. Equal values may be shown once.

Assays:
[1] = tested on: phospho-c-Jun; assay: Phospho-c-Jun translocation assay in TNFα-activated SW1353 cells; assay type: cell-based; conditions: Homo sapiens, TNFα 1 ng/ml for 20 min, 30 min compound pre-incubation
Text: Inflammation is regulated in part by the action of c-Jun on other genes in the inflammatory pathway. Thus, inhibition of phosphorylated c-Jun translocation to the nucleus provides an indication of the anti-inflammatory activity of a compound. SW1353 cells were purchased from the American Tissue Culture Collection and maintained in growth media containing DMEM medium (Invitrogen) with 10% fetal bovine serum (Invitrogen), ascorbic acid (Sigma), and penicillin/streptomycin/[…] (Invitrogen) under culture conditions (at 37° C. with 5% CO2). Cells were plated at a density of 8,000 cells/well in 100 μl growth medium 24 h prior to the compound treatment. Immediately before the compound treatment, growth media was replaced with 90 μl of fresh media. Compound stock at 10 mM was first diluted in compound vehicle (DMSO) to 3 mM, then diluted in serum-free medium and added to each well as a 10× concentrated solution in a volume of 10 μl, mixed, and pre-incubated with cells for 30 min at 37° C. in 5% CO2. Compound vehicle (DMSO) was maintained at a final concentration of 1% for all samples. After 30 min incubation, the cells were activated with TNFα (1 ng/ml, Roche Biochem) for 20 min. Cells were then fixed, permeabilized, and stained with anti-phospho-c-Jun antibody (Santa Cruz), followed by Alexa Fluor 488 labeled secondary antibody and Hoechet 33342 dye (Invitrogen) per manufacturer's instructions. The signals of phospho-c-Jun were measured for 400 cells per well by the ArrayScan HCS system (Cellomic). The IC50 values were calculated as the concentration of the compound at which the phospho-c-Jun activity was inhibited to 50% of the control value using the 4-parameter fitting function in the ActivityBase program (IDBS).

[2] = molecular target: Human JNK2α2 (Homo sapiens, UniProt P45984); assay: JNK assay in vitro, phosphorylation of GST-ATF2 (19-96) with [γ-33P] ATP; assay type: biochemical; conditions: Human JNK2α2, 1 nM enzyme, 1 μM ATF2, 8 μM ATP (Km); read-out: JNK2 - IC50
Sequence of Human JNK2α2 (P45984 whole entry): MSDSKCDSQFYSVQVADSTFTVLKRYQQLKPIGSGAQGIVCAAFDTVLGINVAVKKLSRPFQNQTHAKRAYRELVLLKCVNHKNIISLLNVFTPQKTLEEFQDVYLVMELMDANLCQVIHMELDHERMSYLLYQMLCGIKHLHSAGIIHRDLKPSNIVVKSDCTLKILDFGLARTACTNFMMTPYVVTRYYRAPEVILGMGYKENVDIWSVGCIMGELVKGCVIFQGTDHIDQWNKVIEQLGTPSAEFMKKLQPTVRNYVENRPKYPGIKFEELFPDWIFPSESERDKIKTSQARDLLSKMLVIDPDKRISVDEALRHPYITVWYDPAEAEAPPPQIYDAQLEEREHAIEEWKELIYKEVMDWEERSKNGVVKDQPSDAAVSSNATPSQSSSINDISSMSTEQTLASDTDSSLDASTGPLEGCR
Experimental: (§1) JNK activity was measured by phosphorylation of GST-ATF2 (19-96) with [γ-^33P] ATP. The enzyme reaction was conducted at Km concentrations of ATP and the substrate at final volume of 40 μl in buffer containing 25 mM HEPES, pH 7.5, 2 mM dithiothreitol, 150 mM NaCl, 20 mM MgCl2, 0.001% Tween® 20, 0.1% BSA and 10% DMSO. Human JNK2α2 assay contains 1 nM enzyme, 1 μM ATF2, 8 μM ATP with 1 uCi [γ-^33P] ATP. Human JNK1α1 assay contains 2 nM enzyme, 1 μM ATF2, 6 μM ATP with 1 μCi [γ-^33P] ATP. Human JNK3 (Upstate Biotech #14-501M) assay contains 2 nM enzyme, 1 μM ATF2, 4 μM ATP with 1 μCi [γ-^33P] ATP. The enzyme assay was carried out in the presence or absence of several compound concentrations. JNK and compound were pre-incubated for 10 min., followed by initiation of the enzymatic reaction by adding ATP and the substrate. The reaction mixture was incubated at 30° C. for 30 min. At the end of incubation, the reaction was terminated by transferring 25 μl of the reaction mixture to 150 μl of 10% glutathione Sepharose® slurry (Amersham #27-4574-01) containing 135 mM EDTA. The reaction product was captured on the affinity resin, and washed on a filtration plate (Millipore, MABVNOB50) with phosphate buffered saline for six times to remove free radionucleotide. The incorporation of ^33P into ATF2 was quantified on a microplate scintillation counter (Packard Topcount). Compound inhibition potency on JNK was measured by IC50 value generated from ten concentration inhibition curves fitted into the 3-parameter model: % inhibition=Maximum/(1+(IC50/[Inhibitor])^slope). Data were analyzed on Microsoft Excel for parameter estimation.

[3] = molecular target: Human JNK1α1 (Homo sapiens, UniProt P45983); assay: as above; assay type: biochemical; conditions: Human JNK1α1, 2 nM enzyme, 1 μM ATF2, 6 μM ATP (Km); read-out: JNK1 - IC50
Sequence of Human JNK1α1 (P45983 1-384 isoform P45983-2): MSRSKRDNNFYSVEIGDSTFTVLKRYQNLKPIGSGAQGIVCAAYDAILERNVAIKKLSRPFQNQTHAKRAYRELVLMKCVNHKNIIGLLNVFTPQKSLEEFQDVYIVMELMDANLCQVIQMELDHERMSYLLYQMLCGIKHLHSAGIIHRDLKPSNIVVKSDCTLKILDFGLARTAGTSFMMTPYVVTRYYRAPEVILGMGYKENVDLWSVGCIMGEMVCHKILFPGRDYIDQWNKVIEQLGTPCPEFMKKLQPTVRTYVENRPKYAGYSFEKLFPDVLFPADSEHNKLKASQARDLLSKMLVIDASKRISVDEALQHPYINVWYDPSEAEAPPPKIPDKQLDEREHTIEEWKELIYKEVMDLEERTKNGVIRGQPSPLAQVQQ
Experimental: as §1

IC50 [1]	melting point	IC50 [2]	IC50 [3]	SMILES
–	158 to 160 °C	220 nM	64.7 nM	Cc1ccccc1-c1cccc2c1ccn2-c1ccnc(N[C@H]2CC[C@H](C(=O)N3CCC(O)CC3)CC2)n1 [Compound 15, (4-Hydroxy-piperidin-1-yl)-{4-[4-(4-o-tolyl-indol-1-yl)-pyrimidin-2-ylamino]-cyclohexyl}-methanone]
5810 nM	266 to 267 °C	91.2 nM	28.7 nM	O=C([C@H]1CC[C@H](Nc2nccc(-n3nnc4c(-c5ccncc5)cccc43)n2)CC1)N1CCC(O)CC1 [Compound 8]
678 nM	224 to 226 °C and 224.6 to 225.9 °C	19.9 nM	5.8 nM	Cc1ccccc1-c1cccc2c1nnn2-c1ccnc(N[C@H]2CC[C@H](C(=O)N3CCC(O)CC3)CC2)n1 [Compound 2, (4-Hydroxy-piperidin-1-yl)-{4-[4-(4-o-tolyl-benzotriazol-1-yl)-pyrimidin-2-ylamino]-cyclohexyl}-methanone]
2590 nM	215 to 220 °C	121 nM	31.7 nM	Cc1n[nH]cc1-c1cccc2c1ccn2-c1ccnc(N[C@H]2CC[C@H](C(=O)N3CCC(O)CC3)CC2)n1 [Compound 12, (4-Hydroxy-piperidin-1-yl)-(4-{4-[4-(3-methyl-1H-pyrazol-4-yl)-indol-1-yl]-pyrimidin-2-ylamino}-cyclohexyl)-methanone]
–	171 to 172 °C	189 nM	47.9 nM	O=C([C@H]1CC[C@H](Nc2nccc(-n3ccc4c(-c5ccsc5)cccc43)n2)CC1)N1CCC(O)CC1 [Compound 18, (4-hydroxy-piperidin-1-yl)-{4-[4-(4-thiophen-3-yl-indol-1-yl)-pyrimidin-2-ylamino]-cyclohexyl}-methanone]
–	190 to 191 °C	856 nM	262 nM	O=C([C@H]1CC[C@H](Nc2nccc(-n3ccc4c(-c5ccccc5)cccc43)n2)CC1)N1CCC(O)CC1 [Compound 17, (4-Hydroxy-piperidin-1-yl)-{4-[4-(4-phenyl-indol-1-yl)-pyrimidin-2-ylamino]-cyclohexyl}-methanone]
2520 nM	258 to 259 °C	175 nM	44 nM	O=C([C@H]1CC[C@H](Nc2nccc(-n3ccc4c(-c5ccncc5)cccc43)n2)CC1)N1CCC(O)CC1 [Compound 16, (4-Hydroxy-piperidin-1-yl)-{4-[4-(4-pyridin-4-yl-indol-1-yl)-pyrimidin-2-ylamino]-cyclohexyl}-methanone]
8370 nM	168 to 188 °C	98.7 nM	33.1 nM	Cc1cscc1-c1cccc2c1ccn2-c1ccnc(N[C@H]2CC[C@H](C(=O)N3CCC(O)CC3)CC2)n1 [Compound 7, (4-Hydroxy-piperidin-1-yl)-(4-{4-[4-(4-methyl-thiophen-3-yl)-indol-1-yl]-pyrimidin-2-ylamino}-cyclohexyl)-methanone]
–	176 to 178 °C	341 nM	87.7 nM	Cc1ccncc1-c1cccc2c1ccn2-c1ccnc(N[C@H]2CC[C@H](C(=O)N3CCC(O)CC3)CC2)n1 [Compound 14, (4-Hydroxy-piperidin-1-yl)-(4-{4-[4-(4-methyl-pyridin-3-yl)-indol-1-yl]-pyrimidin-2-ylamino}-cyclohexyl)-methanone]
–	–	225 nM	48.4 nM	Cc1noc(C)c1-c1cccc2c1ccn2-c1ccnc(N[C@H]2CC[C@H](C(=O)N3CCC(O)CC3)CC2)n1 [Compound 13, (4-{4-[4-(3,5-Dimethyl-isoxazol-4-yl)-indol-1-yl]-pyrimidin-2-ylamino}-cyclohexyl)-(4-hydroxy-piperidin-1-yl)-methanone]

The next lines start with the compound.

SMILES	IC50 [1]	melting point	IC50 [2]	IC50 [3]
Cc1noc(C)c1-c1cccc2c1nnn2-c1ccnc(N[C@H]2CC[C@H](C(=O)N3CCC(O)CC3)CC2)n1 [Compound 4, (4-{4-[4-(3,5-Dimethylisoxazol-4-yl)-benzotriazol-1-yl]-pyrimidin-2-ylamino}-cyclohexyl)-(4-hydroxy-piperidin-1-yl)-methanone]	2580 nM	> 300 °C	105 nM	43.2 nM
Cc1cscc1-c1cccc2c1nnn2-c1ccnc(NC2CCN(S(C)(=O)=O)CC2)n1 [Compound 5, (1-Methanesulfonyl-piperidin-4-yl)-{4-[4-(4-methyl-thiophen-3-yl)-benzotriazol-1-yl]-pyrimidin-2-yl}-amine]	13900 nM	–	17.8 nM	3.6 nM
Cc1ccncc1-c1cccc2c1nnn2-c1ccnc(N[C@H]2CC[C@H](C(=O)N3CCC(O)CC3)CC2)n1 [Compound 3, (4-Hydroxy-piperidin-1-yl)-(4-{4-[4-(4-methylpyirin-3-yl)-benzotriazol-1-yl]-pyrimidin-2-ylamino}-cyclohexyl)-methanone]	2820 nM	194.3 to 218.2 °C	90.4 nM	27.5 nM
O=C([C@H]1CC[C@H](Nc2nccc(-n3nnc4c(-c5ccoc5)cccc43)n2)CC1)N1CCC(O)CC1 [Compound 9, {4-[4-(4-Furan-3-yl-benzotriazol-1-yl)-pyrimidin-2-ylamino]-cyclohexyl}-(4-hydroxy-piperidin-1-yl)-methanone]	≥ 30000 nM	243 to 244 °C	130 nM	39.7 nM
O=C([C@H]1CC[C@H](Nc2nccc(-n3nnc4c(-c5ccsc5)cccc43)n2)CC1)N1CCC(O)CC1 [Compound 6, (4-Hydroxy-piperidin-1-yl)-{4-[4-(4-thiophen-3-ylbenzotriazol-1-yl)-pyrimidin-2-ylamino]-cyclohexyl}-methanone]	3300 nM	233 to 234 °C	67.8 nM	20.3 nM
Cc1n[nH]cc1-c1cccc2c1nnn2-c1ccnc(NC2CCN(S(C)(=O)=O)CC2)n1 [Compound 10, (1-Methanesulfonyl-piperidin-4-yl)-{4-[4-(3-methyl-1H-pyrazol-4-yl)-benzotriazol-1-yl]-pyrimidin-2-yl}-amine]	2160 nM	231 to 232 °C	14 nM	3 nM
Cc1cscc1-c1cccc2c1nnn2-c1ccnc(N[C@H]2CC[C@H](C(=O)N3CCC(O)CC3)CC2)n1 [Compound 1]	703 nM	246 to 247 °C	12.7 nM	2.8 nM
Cc1n[nH]cc1-c1cccc2c1nnn2-c1ccnc(N[C@H]2CC[C@H](C(=O)N3CCC(O)CC3)CC2)n1 [Compound 11, (4-Hydroxy-piperidin-1-yl)-(4-{4-[4-(3-methyl-1H-pyrazol-4-yl)-benzotriazol-1-yl]-pyrimidin-2-ylamino}-cyclohexyl)-methanone]	434 nM	–	18.6 nM	5.2 nM
